Data as given in patent US9493480B2, “Monomeric trioxane amide sulfur compounds” (THE JOHNS HOPKINS UNIVERSITY, priority 2011, dated 2016).
“Also recorded” adds a separate entry of the source.

How the values were obtained:
[1] = tested on: Plasmodium berghei, ANKA malaria strain; experiment: In vivo antimalarial efficacy, single oral dose of trioxane combined with mefloquine hydrochloride in P. berghei infected mice; conditions: for mouse survival in words: single oral dose 100 mg/kg; for cure outcome (survival to day 30 with no detectable parasites = complete cure): single oral dose of trioxane (6 mg/kg) combined with mefloquine hydrochloride (18 mg/kg); for parasitemia on day 30 after infection in surviving mice: value of one mouse where so stated
Method: […] Rosenthal, A. S., et al., Malaria-infected Mice are Cured by a Single Oral Dose of New Dimeric Trioxane Sulfones Which are Also Selectively and Powerfully Cytotoxic to Cancer Cells. J. Med. Chem. 2009, 52, 1198-1203. Each of four mice in a group was treated orally 24 hours post infection with a single dose of 0.20 mL [(0.20 mL/1.07 mL)×0.64 mg=0.12 mg] of diluted trioxane solution, […] Alternatively, a single dose of 7.5 mg/kg of trioxane plus 15.0 mg/kg of mefloquine hydrochloride was used. The malariometrics used involved determining blood parasitemia levels, as well as monitoring the duration of animal survival compared to survival time of infected animals receiving no drug.
The average survival time of the malaria-infected animals receiving no drug was 6.8 days post infection. All of the infected mice in this study receiving the trioxane drug artemether (2b) plus mefloquine died on the average on day 18.8 post infection (Table 1, controls). Additionally, a single oral dose of artemether (6 mg/kg) plus lumefantrine (18 mg/kg) was not curative (see Table 1), with the mice dying an average of 12.5 days after infection. […]
(§1) A widely accepted indication of complete cure (i.e., 100% efficacy) is survival of animals to day 30 post infection with no detectable malaria parasites in the animals' blood at that time. It is important to note that the combination of the standard trioxane drug artemether (2b), with either mefloquine hydrochloride or lumefantrine, was not curative (Table 1, controls). […] While 3-fluoroanilide 12b was not curative, administration of 3-methylthioether 3-arteSanilide 12d at a dose of 7.5 mg/kg plus 15 mg/kg mefloquine hydrochloride achieved mouse survival through day 30 after infection; however, all four of the surviving mice appeared sick and had considerable parasitemia levels (25-50%). […] In addition, 3-arteSanilide 12d is more efficacious than 4-arteSanilide 12c. […] Replacing the sulfur atom in 12d with an oxygen atom afforded methyl ether 12p, which prolonged survival time to only 21.8 days after infection. This observation indicates the critical nature of the sulfur atom. In addition, the lipophilicity of 3-arteSanilide 12d was increased by lengthening the alkyl sulfide chain from methyl to n-propyl. 3-n-Propyl sulfide 12l, however, is much less efficacious than the curative methyl sulfide 3-arteSanilide 12d.

[2] = tested on: P. falciparum (NF54) Parasites; experiment: In vitro antimalarial potencies of trioxanes against P. falciparum (NF54) parasites; assay type: cell-based; conditions: Plasmodium falciparum, M ± SD of at least four determinations
Method: Biology: In Vitro Potencies. Prompted by the unexpected in vivo efficacy of 3-arteSanilide 12d, the in vitro the intrinsic antimalarial activity, free of host-mediated factors, was assayed of compounds that differ in the oxidative state of the sulfur atom (Table 2).

[3] = Stability of the neat compound at 60° C.; assay type: physicochemical; conditions: absence of solvent
Excerpt: Hydroboration-oxidation followed by oxidation of the resulting primary alcohol produced C-10 carboxylic acid 11. Posner, G. H., et al., Orally Active, Antimalarial, Anticancer, Artemisinin-derived Trioxane Dimers with High Stability and Efficacy. J. Med. Chem. 2003, 46, 1060-1065. Condensation of carboxylic acid 11 with various anilines yielded a library of C-10 monomeric trioxane anilides 12b-h, 12l, 12o-q (FIG. 2). Scale up synthesis is expected to be straightforward. Without wishing to be bound to any one particular theory, because these anilides 12b-q are C-10 non-acetal derivatives, they are more hydrolytic ally stable than the C-10 acetal first generation artemisinin derivatives, such as artemether (2b) or artesunate (2c). In the absence of solvent, neat 3-arteSanilide 12d, for example, is stable for at least 7 days at 60° C.

[4] = Overt toxicity, behavior and weight gain of treated malaria-infected mice; assay type: in vivo; conditions: for toxicity of single oral dose: single oral dose 100 mg/kg, no mefloquine
Method: as §1

P388 leukemia = conditions: NCI Report on NSC 369397, tested on 25 Oct. 1983; cited from earlier work
[5] = single oral dose: trioxane 7.5 mg/kg + mefloquine hydrochloride 15 mg/kg
[6] = single oral dose: trioxane 7.5 mg/kg + mefloquine hydrochloride 15 mg/kg, mice, 4 per group
[7] = Plasmodium berghei, 72 h, single oral dose: trioxane 100 mg/kg, no mefloquine, read-out: % suppression of parasitemia (on day 3 after infection)
[8] = single oral dose 24 h post infection: trioxane 6 mg/kg + mefloquine hydrochloride 18 mg/kg, C57BL/6J male mice, 4 per group
[9] = single oral dose: trioxane 6 mg/kg + mefloquine hydrochloride 18 mg/kg
[10] = single oral dose: trioxane 100 mg/kg, no mefloquine
[11] = single oral dose: artemether 6 mg/kg + lumefantrine 18 mg/kg
[12] = mefloquine hydrochloride alone, single oral dose 15 mg/kg
[13] = mefloquine hydrochloride alone, single oral dose 18 mg/kg

Structure (SMILES) | % suppression of parasitemia (on day 3 after infection) [1, 5] [%] | average survival (days) after infection [1, 6] [days] | average survival (days) after infection [1, 8] [days] | % suppression of parasitemia (on day 3 after infection) [1, 9] [%] | EC50 [2] [nM] | further results
CSc1ccc(NC(=O)CC[C@H]2O[C@@H]3O[C@@]4(C)CC[C@H]5[C@H](C)CC[C@@H]([C@H]2C)[C@@]35OO4)cc1 [12c, 4-arteSanilide] | >99.9 | 16.3 |  |  |  | 
CSc1cccc(NC(=O)CC[C@H]2O[C@@H]3O[C@@]4(C)CC[C@H]5[C@H](C)CC[C@@H]([C@H]2C)[C@@]35OO4)c1 [12d, 3-arteSanilide] | >99.9 | 30 | 30 | >99.9 | 9.1 ± 0.57 | inhibition in vivo at 100 mg/kg [1, 7]: 97.2%; parasitemia in uninfected mice inoculated with blood from the cured mice ([1]; donors: 6 mg/kg trioxane + 18 mg/kg mefloquine, read after 30 days): no parasitemia was detected; mouse survival in words ([1]; no mefloquine): prolonged mouse survival; cure outcome (survival to day 30 with no detectable parasites = complete cure) [1]: complete cure; also recorded: cures malaria-infected mice; parasitemia on day 30 after infection in surviving mice [1, 9]: ^bNo parasitemia detected on day 30 after infection.; average survival (days) after infection [1, 10]: 15.0 days; time stable, neat [3]: at least 7 days; weight gain by day 30 after infection ([4]; 6 mg/kg trioxane + 18 mg/kg mefloquine, compared with uninfected control mice): gained as much weight by day 30 after infection (data not shown) as the uninfected control mice; also recorded: gain as much weight as the control mice; overt toxicity or behavioral change attributable to trioxane administration ([4]; malaria-infected mice cured by trioxane combined with mefloquine hydrochloride): neither overt toxicity nor behavioral change; toxicity of single oral dose [4]: nontoxic
CSc1ccccc1NC(=O)CC[C@H]1O[C@@H]2O[C@@]3(C)CC[C@H]4[C@H](C)CC[C@@H]([C@H]1C)[C@@]24OO3 [12e, 2-arteSanilide] |  |  | 27.0 | >99.9 |  | 
CSc1cc(NC(=O)CC[C@H]2O[C@@H]3O[C@@]4(C)CC[C@H]5[C@H](C)CC[C@@H]([C@H]2C)[C@@]35OO4)cc(SC)c1 [12f, 3,5-arteSSanilide] |  |  | 30 | >99.9 | 6.5 ± 0.28 | inhibition in vivo at 100 mg/kg [1, 7]: 97.9%; mouse survival in words ([1]; no mefloquine): essentially no increase in mouse longevity; cure outcome (survival to day 30 with no detectable parasites = complete cure) [1]: partially curative; parasitemia on day 30 after infection in surviving mice [1, 9]: 5% and ^dThree mice were parasite-free on day 30, but one mouse had 5% parasitemia on day 30 after infection.; average survival (days) after infection [1, 10]: 7.5 days; toxicity of single oral dose [4]: nontoxic
C[C@H]1[C@@H](CCC(=O)Nc2cccc([S+](C)[O-])c2)O[C@@H]2O[C@@]3(C)CC[C@H]4[C@H](C)CC[C@@H]1[C@@]24OO3 (stereo partly shown) [12g] |  |  | 23.0 | >99.9 | 23 ± 1.3 | cure outcome (survival to day 30 with no detectable parasites = complete cure) [1]: does not
C[C@H]1[C@@H](CCC(=O)Nc2cccc([S+](C)[O-])c2)O[C@@H]2O[C@]3(C)CC[C@H]4[C@H](C)CC[C@@H]1[C@@]24OO3 (stereo partly shown) [12h] |  |  | 30 | >99.9 | 29 ± 0.43 | cure outcome (survival to day 30 with no detectable parasites = complete cure) [1]: partially curative; parasitemia on day 30 after infection in surviving mice [1, 9]: ^eOne mouse had 1.8% parasitemia on day 30 after infection.
C[C@H]1[C@@H](CCC(=O)Nc2ccc(S(C)(=O)=O)cc2)O[C@@H]2O[C@]3(C)CC[C@H]4[C@H](C)CC[C@@H]1[C@@]24OO3 [12i] | >99.9 | 22.5 |  |  |  | 
C[C@H]1[C@@H](CCC(=O)Nc2cccc(S(C)(=O)=O)c2)O[C@@H]2O[C@@]3(C)CC[C@H]4[C@H](C)CC[C@@H]1[C@@]24OO3 [12j] | 99.9 | 15.5 |  |  | 21 ± 1.1 | 
C[C@H]1[C@@H](CCC(=O)Nc2ccccc2S(C)(=O)=O)O[C@@H]2O[C@]3(C)CC[C@H]4[C@H](C)CC[C@@H]1[C@@]24OO3 [12k] | >99.9 | 22.8 |  |  |  | 
CCCSc1cccc(NC(=O)CC[C@H]2O[C@@H]3O[C@]4(C)CC[C@H]5[C@H](C)CC[C@@H]([C@H]2C)[C@@]35OO4)c1 [12l] |  |  | 23.0 | >99.9 |  | 
CCCS(=O)(=O)c1cccc(NC(=O)CC[C@H]2O[C@@H]3O[C@]4(C)CC[C@H]5[C@H](C)CC[C@@H]([C@H]2C)[C@@]35OO4)c1 [12m] |  |  | 11.0 | >99.9 |  | 
CCCS(=O)(=O)c1ccccc1NC(=O)CC[C@H]1O[C@@H]2O[C@]3(C)CC[C@H]4[C@H](C)CC[C@@H]([C@H]1C)[C@@]24OO3 [12n] |  |  | 21.8 | >99.9 |  | 
C[C@H]1[C@@H](CCC(=O)Nc2ccc(S(C)(=O)=O)cc2Cl)O[C@@H]2O[C@]3(C)CC[C@H]4[C@H](C)CC[C@@H]1[C@@]24OO3 [12o] | >99.9 | 24.5 |  |  |  | 
COc1cccc(NC(=O)CC[C@H]2O[C@@H]3O[C@]4(C)CC[C@H]5[C@H](C)CC[C@@H]([C@H]2C)[C@@]35OO4)c1 [12p] |  |  | 21.8 | >99.9 |  | 
CCCCCCOc1ccc(NC(=O)CC[C@H]2O[C@@H]3O[C@]4(C)CC[C@H]5[C@H](C)CC[C@@H]([C@H]2C)[C@@]35OO4)cc1 [12q] | >99.9 | 15.0 |  |  |  | 
C[C@@H]1CC[C@H]2[C@@H](C)C(=O)O[C@@H]3O[C@@]4(C)CC[C@@H]1[C@]32OO4 [Artemisinin (1), artemisinin, reference compound] |  |  |  |  | 10 ± 1.1 | activity against P388 leukemia (P388 leukemia): inactive
CO[C@H]1O[C@@H]2O[C@@]3(C)CC[C@H]4[C@H](C)CC[C@@H]([C@H]1C)[C@@]24OO3 [artemether (2b), artemether, reference compound] | >99.9 | 19.8 | 18.8 | >99.9 |  | % suppression of parasitemia (on day 3 after infection) [1, 11]: >99.9%; average survival (days) after infection [1, 11]: 12.5 days
CCCCN(CCCC)CC(O)c1cc(Cl)cc2c1-c1ccc(Cl)cc1/C2=C/c1ccc(Cl)cc1 (stereo not shown) [lumefantrine, reference compound] |  |  |  |  |  | inhibition in vivo at 18 mg/kg ([1]; Plasmodium berghei, po, 72 h, read-out: % suppression of parasitemia (on day 3 after infection)): > 99.9%; average survival (days) after infection ([1]; lumefantrine alone, single oral dose 18 mg/kg): 21.5 days
Cl.OC(c1cc(C(F)(F)F)nc2c(C(F)(F)F)cccc12)C1CCCCN1 (stereo not shown) [mefloquine, mefloquine hydrochloride, reference compound] |  |  |  |  |  | % suppression of parasitemia (on day 3 after infection) [1, 12]: >99.9%; average survival (days) after infection [1, 12]: 15.5 days; % suppression of parasitemia (on day 3 after infection) [1, 13]: >99.9%; average survival (days) after infection [1, 13]: 19.8 days
